Measured values published in patent US6441049B2, “Method of treating neurodegenerative disorders via inhibition of amyloid beta peptide binding” (Ortho-McNeil Pharmaceutical, Inc., priority 1998, dated 2002).
Like-named read-outs stand apart in the source and are kept apart here.

What was measured:
[1] = test system: acetylcholine release from guinea pig hippocampus synaptosomes; experiment: K+-evoked 3H-acetylcholine release from synaptosomes, effect of Aβs; assay type: cell-based; settings: 10 μM
Description: Synaptosomes from guinea pig hippocampus were incubated with 0.1 μM ^3H-choline and then subjected to repeated washes to remove unincorporated ^3H-choline. The synaptosomes were treated with 65 mM K^+ for 30 seconds to elicit 3H-acetylcholine release.

[2] = target: T1, Aβ aggregation (Homo sapiens, UniProt P05067); experiment: Aβ aggregation assay on Synthaloid plates with labelled Aβ1-40; assay type: biochemical
T1 construct: 100 nM of fluo-Aβ1-40 in 100 μl of each well of the 96-well Synthaloid plate; purchased Amersham Pharmacia Biotech (125I-Aβ1-40); Advanced Bioconcepts (fluo-Aβ1-40)
Description: Aβs are known to form aggregates leading to the formation of amyloid plaques that are characteristic of Alzheimer's disease. […] We have validated this aggregation assay using both ^125I-Aβ1-40 and fluo-Aβ1-40 in a buffer containing 50 mM HEPES, pH 7.4, 0.1% BSA, 10% FCS and protease inhibitors. About 500 pM of ^125I-Aβ1-40 or 100 nM of fluo-Aβ1-40 in 100 μl of each well of the 96-well Synthaloid plate was allowed to incubate for 2.5 hr at room temperature in the presence or absence of inhibitors. At the end of the incubation, unbound protein in the wells was removed by three washes using the above buffer. The amount of bound protein which represented Aβ aggregation was measured either by scintillation counting or fluorescence measurements.

[3] = target: 206-216 stretch of the human α7 nAChR (Homo sapiens, UniProt P36544); settings: inhibitors 1 uM to 10 uM
Description: A 2-5 ug quantity of the 11 amino acid peptide comprised of the 206-216 stretch of the α7 nAChR (N-Ac, C(O)NH2) are added to a 96-well microtiter plate in 50 mL 10 mM HEPES, pH 7.4, or any buffer 50 ul. ^125I-β-amyloid1-40 (2000 Ci/mmol, 50 pM) was added to the wells in the presence and absence of inhibitors (1 uM to 10 uM) dissolved in 1 uL of 30% or 100% DMSO. Unbound ligands were removed and bound radioactivity was measured using a Microbeta liquid scintillation counter.

T1 sequence (P05067 672-711 limits assumed): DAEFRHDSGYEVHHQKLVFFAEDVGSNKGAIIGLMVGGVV

Row | Compound | % Inh Agg. (conc μM) ([2]; 10 μM) | further results
1 | 5,8-bis(Diphenylphosphinoyl)-3-methyl-1,2,3,4-tetrahydronaphthalene [Compound 59] | <30 (10) % | % ACh Release at 10 μM [1]: 25%; % α7 nAChR 206-216 Binding ([3]; […]): 72%
2 | CCCN(CCCc1ccccc1)C1Cc2c(OC)ccc(OC)c2CC1C (racemic) [Compound 19] |  | % Inh Agg. (conc μM) ([2]; 5 μM): 30 (5) %
3 | CCCN(CCCc1ccccc1)C1Cc2c(O)ccc(O)c2CC1C (racemic) [Compound 20] |  | % Inh Agg. (conc μM) ([2]; 5 μM): 39 (5) %
4 | CCCN(CC1CCCCC1)C1Cc2c(OC)ccc(OC)c2CC1C (racemic) [Compound 21] |  | % Inh Agg. (conc μM) ([2]; 5 μM): 20 (5) %
5 | CCCN(CC1CCCCC1)C1Cc2c(O)ccc(O)c2CC1C (racemic) [Compound 22] |  | % Inh Agg. (conc μM) ([2]; 50 μM): 38 (50) %
6 | CCCN(Cc1ccccc1)C1Cc2c(OC)ccc(OC)c2CC1C (racemic) [Compound 25] |  | % α7 nAChR 206-216 Binding ([3]; 125I-β-amyloid1-40 50 pM): 48%
7 | CCCN(Cc1ccccc1)C1Cc2c(O)ccc(O)c2CC1C (racemic) [Compound 26] | <30 (10) % | % α7 nAChR 206-216 Binding ([3]; 125I-β-amyloid1-40 50 pM): 64%
8 | CCCN(CCCSC)C1Cc2c(O)ccc(O)c2CC1C (racemic) [Compound 28] | 50-90 (10) % | % α7 nAChR 206-216 Binding ([3]; 125I-β-amyloid1-40 50 pM): 34%
9 | CCCN(Cc1cccs1)C1Cc2c(OC)ccc(OC)c2CC1C (racemic) [Compound 29] | 12 (10) % | 
10 | CCCN(Cc1cccs1)C1Cc2c(O)ccc(O)c2CC1C (racemic) [Compound 30] |  | % Inh Agg. (conc μM) ([2]; 5 μM): 38 (5) %
11 | C#CCN(CCC)C1Cc2c(OC)ccc(OC)c2CC1C (racemic) [Compound 31, 5,8-Dimethoxy-cis and trans-2-(N-propyl-N-propargyl)amino-3-methyl-1,2,3,4-tetrahydronaphthalene] | 34 (10) % | 
12 | C#CCN(CCC)C1Cc2c(O)ccc(O)c2CC1C (racemic) [Compound 32] | 69 (10) % | 
13 | C#CCN(CCC)C1Cc2c(O)ccc(O)c2CC1C (racemic) [Compound 34] | 69 (10) % | 
14 | CCCN(Cc1ccc(I)cc1)C1Cc2c(OC)ccc(OC)c2CC1C (racemic) [Compound 35] | 38 (10) % | 
15 | CCCN(Cc1ccc(I)cc1)C1Cc2c(O)ccc(O)c2CC1C (racemic) [Compound 36] | <30 (10) % | 
16 | CCCCOc1ccc(CN(CCC)C2Cc3c(OC)ccc(OC)c3CC2C)cc1 (racemic) [Compound 37] | <30 (10) % | 
17 | CCCN(Cc1ccc(O)cc1)C1Cc2c(O)ccc(O)c2CC1C (racemic) [Compound 38] | <30 (10) % | 
18 | CCCN(Cc1ccccc1Cl)C1Cc2c(OC)ccc(OC)c2CC1C (racemic) [Compound 39] | 85 (10) % | 
19 | CCCN(Cc1ccccc1Cl)C1Cc2c(O)ccc(O)c2CC1C (racemic) [Compound 40] | 75 (10) % | 
20 | CCCN(Cc1ccc(C)cc1)C1Cc2c(OC)ccc(OC)c2CC1C (racemic) [Compound 41] | <30(10) % | % ACh Release at 10 μM [1]: 14%; % α7 nAChR 206-216 Binding ([3]; 125I-β-amyloid1-40 50 pM): 19%
21 | CCCN(Cc1ccc(C)cc1)C1Cc2c(O)ccc(O)c2CC1C (racemic) [Compound 42] | 60 (10) % | 
22 | CCCN(CCC)C1Cc2c(O)ccc(OCC=C(C)C)c2CC1C (racemic) [Compound 43] | 50-90 (10) % | % ACh Release at 10 μM [1]: 0%; % α7 nAChR 206-216 Binding ([3]; 125I-β-amyloid1-40 50 pM): 10%
